Data on 9 molecules can be found in patent US12570603B2, “FABP4/5 inhibitors, methods of use and methods of making” (Novius Therapeutics, LLC, priority 2021, dated 2026).

In test [1] the test system is PPARδ targets PDPK1 and CD47 in TNBC cells MB-231. As to the kind of experiment: Real-time PCR of PPARδ targets. Type of test: cell-based. As to conditions: MB-231, 1 μM, 6 hours. The method, then: (§1) Cells were treated with a compound for 6 h. then lysed and RNA was extracted using Trizol, according to the manufacturer's instructions. cDNA was generated using GeneAmp RNA PCR (Applied Biosystems). qPCR was carried out using TaqMan chemistry and Assays-on-Demand probes (Applied Biosystems). 18s (4352930) rRNA was used for normalization. Relative expression was calculated as 2^−ΔΔCT.
A general note: Quantitative PCR measures a nucleic acid by following its amplification.

Test [2] deals with MB-231 shC and shF5 cells. As to the kind of experiment: Proliferation assay, MB-231 lines expressing control shRNA (shC) or FABP5 shRNA (shF5). It counts as cell-based. The following applies: MB-231 shC vs shF5, different concentrations. The method, then:
(§2) 2000 cells were plated in each well of 96-well plate. The next day cells were treated with compounds and incubated in Incucyte for 4 days. Images taken every 4 hours for the duration of the time were analyzed to calculate percentage of confluency in response to the treatments. Growth inhibition was calculated as 1−(percentage of viable cells out of untreated cells).

For test [3], the target named is T1, PPARα (Homo sapiens, UniProt Q07869).
T1 construct: expressed in transfected cells; host or cells: COS-7
T1 sequence (Q07869 whole entry, species assumed): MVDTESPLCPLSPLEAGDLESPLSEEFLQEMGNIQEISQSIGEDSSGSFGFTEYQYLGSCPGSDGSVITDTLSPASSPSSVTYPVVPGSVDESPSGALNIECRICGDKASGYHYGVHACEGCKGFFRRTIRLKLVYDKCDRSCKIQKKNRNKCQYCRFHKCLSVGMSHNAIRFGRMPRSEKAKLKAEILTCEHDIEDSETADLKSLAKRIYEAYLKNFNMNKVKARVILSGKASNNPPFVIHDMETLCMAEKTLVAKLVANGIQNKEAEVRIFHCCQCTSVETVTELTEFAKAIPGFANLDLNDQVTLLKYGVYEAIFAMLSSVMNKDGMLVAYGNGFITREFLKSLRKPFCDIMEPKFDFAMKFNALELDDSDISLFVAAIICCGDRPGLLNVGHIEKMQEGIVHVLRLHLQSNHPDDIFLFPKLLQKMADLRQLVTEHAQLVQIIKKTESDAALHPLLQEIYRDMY
As to the kind of experiment: Transactivation assay, PPRE luciferase reporter in COS-7 cells. Type of test: cell-based. How it is done:
(§3) COS-7 were cultured in 6-well plates and co-transfected with either a luciferase reporter driven by 3 copies of a PPRE and expression vector for either PPARδ, PPARα or PPARγ together with a vector harboring cDNA for β-galactosidase, serving as a transfection control. To test whether FABP4 or FABP5 mediate activation of their cognate receptors PPARγ and PPARδ, respectively, cells were also co-transfected with a plasmid harboring sequence of either FABP4 or FABP5. 18 h post-transfection, cells were placed in a serum-free medium and treated with agonist/compound. 18 h. later, cells were lysed, luciferase activity was assayed (Promega, WI, USA) and corrected for transfection efficiency by the activity of β-galactosidase.
(§4) COS-7 were cultured in 6-well plates and co-transfected with either a luciferase reporter driven by 3 copies of a PPRE and expression vector for either PPARδ, PPARα or PPARγ together with a vector harboring cDNA for β-galactosidase, serving as a transfection control. 18 h. post-transfection, cells were placed in a serum-free medium and treated with agonist/compound. 18 h. later, cells were lysed, luciferase activity was assayed (Promega, WI, USA) and corrected for transfection efficiency by the activity of β-galactosidase.
In general terms: Reporter assays use an easily measured gene product as a stand-in for the process of interest.

Test [4] deals with PPARγ. The description is as above. The following applies: for activation of transcription by PPARγ: tested against rosiglitazone, FIG. 4; for activation of PPARγ: 5 μM, COS7 cells, FIG. 36C. It counts as cell-based. The method, then: as §3, §4
Test [5] deals with PPARδ. The description is as above. Type of test: cell-based. The method, then: as §3, §4
Test [6] relates to FABP4 together with PPARγ. As to the kind of experiment: Transcriptional activation assay in cells overexpressing FABP4, with PPARγ activator rosiglitazone. It counts as cell-based. The following applies: FIG. 7. The method, then:
as §3

For test [7], the system named is TNBC lines and MCF7. As to the kind of experiment: Proliferation assay in multiple TNBC lines and MCF7, MB-231 shF5 as control. Type of test: cell-based. How it is done: as §2
In test [8] the test system is FABP5 together with PPARδ. Nature of the test: Transcriptional activation assay in cells overexpressing FABP5, with PPARδ activator GW0742. It counts as cell-based. The following applies: together with GW0742, FIG. 8. The method, then: as §3
Test [9] deals with PPARδ targets PDPK1 and CD47 in TNBC cells MB-157. As to the kind of experiment: Real-time PCR of PPARδ targets. It counts as cell-based, human. The following applies: MB-157, 1 μM, 6 hours. How it is done: as §1
The target of test [10] is T2, FABP5 (Homo sapiens, UniProt Q01469).
T2 construct: made in house
T2 sequence (Q01469 whole entry, species assumed): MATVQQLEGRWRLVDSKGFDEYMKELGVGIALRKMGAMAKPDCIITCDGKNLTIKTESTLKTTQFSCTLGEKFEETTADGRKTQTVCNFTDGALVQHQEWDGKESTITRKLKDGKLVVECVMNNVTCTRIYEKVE
As to the kind of experiment: FABP binding assay by fluorescence titration (ANS competition). The following applies: fluorescence competition with ANS; read-out: FABP5 binding. The method, then:
(§5) This example illustrates a binding assay study used to determine the binding affinity of the various inhibitor compounds disclosed herein with the various FABPs: FABP3, FABP4, FABP5 and FABP7.
(§6) Binding assays for FABP3, FABP4, FABP5 and FABP7 were carried out by fluorescence titrations. FABPs were bacterially expressed and purified and the equilibrium dissociation constants (Kd) that characterize their interactions with different compounds were measured by fluorescence competition assays. The method entails two steps as described in e.g., Lin, Q. et al., “Ligand selectivity of the peroxisome proliferator-activated receptor alpha,” Biochemistry 38, 185-190, doi:10.1021/bi9816094 bi9816094 [pii](1999). In the first step, Kd for the association of the protein with the fluorescent fatty acid probe ANS was measured. Protein ([…]) was titrated with ANS from a concentrated solution in DMSO. Ligand binding was monitored by following the increase in the fluorescence of the ligand upon binding to the protein, and Kd for the association of ANS with the each FABP was computed from titration curves as described in e.g., Norris, A. W. & Li, E., “Fluorometric titration of the CRABPs,” Methods Mol Biol 89, 123-139 (1998)). Kds for binding of non-fluorescent ligands were then measured by monitoring their ability to displace ANS in the binding pocket of the protein. Each FABP was pre-complexed with ANS at 1:1 molar ratio and titrated with the different compounds whose binding was reflected by a decrease in probe fluorescence. Kds were extracted from the EC50 of the competition curve and the measured Kd for ANS.
(§7) Binding assays for FABP3, FABP4, FABP5 and FABP7 were carried out by fluorescence titrations as described in Example 16.

Test [11] concerns the target T3, FABP4 (Homo sapiens, UniProt P15090).
T3 construct: made in house
The description is as above. The following applies: fluorescence competition with ANS; read-out: FABP4 binding. How it is done:
as §5, §6, §7

Test [12] relates to MB-231 cells. As to the kind of experiment: Proliferation assay (Incucyte confluency, 4 days). As to conditions: MB-231, serial dilution. Type of test: cell-based. How it is done:
(§8) COS-7, MDA-MB-231, HepG2, LX-2, 3T3-L1, NPG, and MCF7 were cultured in Dulbecco's modified Eagle's medium (DMEM) supplemented with 10% fetal bovine serum (Invitrogen Life Sciences, Carlsbad, CA). MDA-MB-157 and MB-549 cells were cultured in L-Glutamine containing RPMI medium supplemented with 10% fetal calf serum (Invitrogen Life Sciences, Carlsbad, CA). For proliferation assays, 2000 cells were plated in each well of 96-well plate. The next day cells were treated with compounds and incubated in Incucyte for 4 days. Images taken every 4 hours for the duration of the time were analyzed to calculate percentage of confluency in response to the treatments.
The TNBC line MB-231 was used to calculate the efficacy of compounds B104, B106, B110, B116, and B118 in inhibiting proliferation of the cancer cells. Cells were treated with serial dilution of the compounds or the known FABP5/7 inhibitor SBF-I26 and proliferation was measured in Incucyte by calculating percentage of confluency every 4 hours over 4 days. […] The EC50 for each compound was calculated by fitting the percentage of inhibition vs. the logarithmic transformation of the used concentrations (FIG. 37B and FIG. 37D). Additionally, the effect of B116 and B118 was also tested on proliferation of the human TNBC lines MDA-MB-157 (FIG. 37E) and MB-549 (FIG. 37F).

Test [13] deals with NPG human neuroblastoma cells. Nature of the test: Neuroblastoma proliferation assay with or without all-trans retinoic acid. It counts as cell-based. The following applies: for proliferation of neuroblastoma cells in combination with atRA: combined with atRA; for proliferation of neuroblastoma cells: compound alone, 4 days. The method, then:
as §8
Activation of PPARβ by atRA shifts the signaling of this vitamin from its cognate receptor RAR that is known to have anti-carcinogenic activities in multiple cancers to the pro-carcinogenic PPARβ. […] Accordingly, NB, human NPG cells were used to test the effect of FABP5 inhibitors on cells' proliferation in combination with atRA. Cells were treated with either B104 or B108 in the presence or absence of atRA.

T3 sequence (P15090 whole entry, species assumed): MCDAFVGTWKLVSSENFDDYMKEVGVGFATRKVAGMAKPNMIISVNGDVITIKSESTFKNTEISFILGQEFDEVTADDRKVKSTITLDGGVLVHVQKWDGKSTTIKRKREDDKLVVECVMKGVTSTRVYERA

For `O=C(O)CSCC(=O)Nc1cc(OCc2ccccc2)c(Cl)cc1Cl` [Compound B7], the “levels of endogenous PPARδ targets PDPK1 and CD47” value in test [1] and in test [9] was “significantly lower” each time. Also, the “TNBC cell growth, shC versus shF5” value in test [2] was “suppressed TNBC cell growth only in the cells highly expressing FABP5”. The “activation of PPARα” value in [3] (compared to WY-14643, FIG. 6) was “activate PPARα”. The “activation of transcription by PPARγ” value in [4] was “did not activate transcription”. For the same molecule, the “activation of transcription by PPARδ” value in test [5] (compared to GW0742, FIG. 5) is “did not active transcription”. Besides, the “inhibition of PPARγ activity in cells overexpressing FABP4” value in test [6] is “inhibit activity of the nuclear receptors only in cells that express the binding proteins”. In test [7], the “growth inhibition of TNBC lines by FABP5 level” value is “inhibited growth of only TNBC lines expressing high FABP5 levels”. The “inhibition of PPARδ activity in cells overexpressing FABP5” value in [8] is listed as “inhibit activity of the nuclear receptors only in cells that express the binding proteins”.

With `C#CCOc1cc(NC(=O)CSCC(=O)O)c(Cl)cc1Cl` [Compound B9], the “levels of endogenous PPARδ targets PDPK1 and CD47” value in [1] and in [9] was “significantly lower” each time. Besides, in test [2], the “TNBC cell growth, shC versus shF5” value is on record as “suppressed TNBC cell growth only in the cells highly expressing FABP5”. For the same molecule, in [4], the “activation of transcription by PPARγ” value was “did not activate transcription”. Further, the “activation of transcription by PPARδ” value in [5] (compared to GW0742, FIG. 5) is on record as “did not active transcription”. For the same molecule, in test [6], the “inhibition of PPARγ activity in cells overexpressing FABP4” value is “inhibit activity of the nuclear receptors only in cells that express the binding proteins”. Further, in test [7], the “growth inhibition of TNBC lines by FABP5 level” value is “inhibited growth of only TNBC lines expressing high FABP5 levels”. Moreover, in test [8], the “inhibition of PPARδ activity in cells overexpressing FABP5” value is on record as “inhibit activity of the nuclear receptors only in cells that express the binding proteins”.

As for `CC(C)Oc1cc(NC(=O)CSC(C)C(=O)O)c(Cl)cc1Cl` (centres unmarked) [Compound B102, 2-((2-((2,4-dichloro-5-isopropoxyphenyl)amino)-2-oxoethyl)thio)propanoic acid], the Kd in test [10] was determined as 6 nM; in test [11] it was 116 nM.

Turning to `CC(C)Oc1cc(NC(=O)CSC(C)(C)C(=O)O)c(Cl)cc1Cl` [Compound B104, 2-((2-((2,4-dichloro-5-isopropoxyphenyl)amino)-2-oxoethyl)thio)-2-methylpropanoic acid], the Kd in test [10] worked out at 7 nM. In addition, the Kd in [11] was 97 nM. The “activation of PPARα” value in test [3] (5 μM, COS7 cells, FIG. 36B) was “activate both PPARα and PPARγ”. Moreover, the “activation of PPARγ” value in [4] is “activate both PPARα and PPARγ”. Further, in [5] (5 μM, COS7 cells, FIG. 36A), the “activation of transcription by PPARδ” value is on record as “do not Activate Transcription”. Moreover, the “suppression of growth of TNBC cells compared with SBF-I26” value (shortened to “suppression … compared with SBF-I26”) in test [12] is “Suppress Growth of TNBC Cells More Effectively than the Commercially Available Inhibitor SBF-I26”. Moreover, in test [13], the “proliferation of neuroblastoma cells in combination with atRA” value is given as “enhanced” and the “proliferation of neuroblastoma cells” value is listed as “significantly inhibited proliferation”.

`CC(C)Oc1cc(NC(=O)C(C)SC(C)C(=O)O)c(Cl)cc1Cl` (centres unmarked) [Compound B106, 2-((1-((2,4-dichloro-5-isopropoxyphenyl)amino)-1-oxopropan-2-yl)thio)propanoic acid]: the Kd came out at 15 nM in [10] and 286 nM in test [11].

Consider `CC(C)Oc1cc(NC(=O)C2CCC(C(=O)O)S2)c(Cl)cc1Cl` (centres unmarked) [Compound B108, 5-((2,4-dichloro-5-isopropoxyphenyl)-carbamoyl)tetrahydrothiophene-2-carboxylic acid], for which, in test [10], the Kd was determined as 2 nM. Moreover, in test [11], the Kd turned out to be 48 nM. In addition, the “activation of PPARγ” value in test [4] was “activated PPARγ”. In test [5] (5 μM, COS7 cells, FIG. 36A), the “activation of transcription by PPARδ” value is recorded as “do not Activate Transcription”. Moreover, the “suppression … compared with SBF-I26” value in test [12] is listed as “Suppress Growth of TNBC Cells More Effectively than the Commercially Available Inhibitor SBF-I26”. Also, in test [13], the “proliferation of neuroblastoma cells in combination with atRA” value was “enhanced” and the “proliferation of neuroblastoma cells” value was “significantly inhibited proliferation”.

Take `CC(C)Oc1cc(NC(=O)COCC(=O)O)c(Cl)cc1Cl` [Compound B110, 2-(2-((2,4-dichloro-5-isopropoxyphenyl)amino)-2-oxoethoxy)acetic acid]: the Kd in [10] worked out at 15 nM; in [11], 242 nM. Moreover, the “activation of transcription by PPARδ” value in [5] (5 μM, COS7 cells, FIG. 36A) was “do not Activate Transcription”. Moreover, the “suppression … compared with SBF-I26” value in [12] is reported as “Suppress Growth of TNBC Cells More Effectively than the Commercially Available Inhibitor SBF-I26”.

Turning to `CC(C)Oc1cc(NC(=O)C2CCC(C(=O)O)O2)c(Cl)cc1Cl` (centres unmarked) [Compound B112, 5-((2,4-dichloro-5-isopropoxyphenyl)carbamoyl)tetrahydrofuran-2-carboxylic acid], the Kd is 15 nM in test [10] and 116 nM in test [11].

For the molecule `CC(C)Oc1cc(NC(=O)CCCC(=O)O)c(Cl)cc1Cl` [Compound B114, 5-((2,4-dichloro-5-isopropoxyphenyl)amino)-5-oxopentanoic acid], the values for the Kd in test [10] and in test [11] were 6 nM and 218 nM, respectively.
